Assays:
[1] = Electrophoresis of polyanionic property on cellulose acetate membrane; type: physicochemical; conditions: 0.2 N hydrochloric acid, about 65 mA for 65 minutes; for DISTANCE (CM): electrophoretic migration from cathode end, toluidine blue stain
Description: The unique polyanionic property of polysulfated glycosaminoglycan (PSGAG) is determined by electrophoresis. A 70 mm cellulose acetate (CA) membrane, saturated with 0.2 N hydrochloric acid is suspended with contact between the cathode and anode of an electrophoresis chamber. A test solution of PSGA G containing about 1 microgram of PSGAG is applied to the cathode end of the strip. A current of about 65 mA is applied for 65 minutes. The CA membrane is removed from the tank, then stained with a 0.1% toluidine blue solution for 5 minutes. The CA membrane is rinsed with a sufficient quantity of water to remove the excess toluidine blue. On the strip, PSGAG appears as only one violet-blue spot at a distance of approximately 3 cm from its starting point.
The cathode is the negative terminal of the electrophoresis chamber. Anionic compounds, such as PSGAG, under an applied current will migrate towards the chamber's anode (i.e., its positive terminal). The polyanionic property of PSGAG was compared to hyaluronic acid, chondroitin sulfate A, chondroitin sulfate B (dermatan sulfate), chondroitin sulfate C, heparin sulfate and keratan sulfate using electrophoresis.

[2] = rabbits, IM injection; incl. articular cartilage, synovial fluid, kidneys, brain, liver, skin, heart; cited from earlier work
hyaluronidases = conditions: cited from earlier work
stromelysin = stromelysin (Homo sapiens, UniProt P08254); conditions: cited from earlier work
metalloproteases = conditions: cited from earlier work
cathepsin B1 = cathepsin B1 (Homo sapiens, UniProt P07858); conditions: cited from earlier work
synovial membrane cells = synovial membrane cells in vitro; cited from earlier work
human chondrocytes = conditions: cultured human chondrocytes; cited from earlier work
elastase = conditions: cited from earlier work
[3] = tested on: Prostaglandin E2 (PGE2) synthesis; conditions: cited from earlier work
rabbit chondrocytes = conditions: cultured rabbit chondrocytes; cited from earlier work
serine proteinases = conditions: in vitro; cited from earlier work

Sequence of stromelysin (P08254 100-477): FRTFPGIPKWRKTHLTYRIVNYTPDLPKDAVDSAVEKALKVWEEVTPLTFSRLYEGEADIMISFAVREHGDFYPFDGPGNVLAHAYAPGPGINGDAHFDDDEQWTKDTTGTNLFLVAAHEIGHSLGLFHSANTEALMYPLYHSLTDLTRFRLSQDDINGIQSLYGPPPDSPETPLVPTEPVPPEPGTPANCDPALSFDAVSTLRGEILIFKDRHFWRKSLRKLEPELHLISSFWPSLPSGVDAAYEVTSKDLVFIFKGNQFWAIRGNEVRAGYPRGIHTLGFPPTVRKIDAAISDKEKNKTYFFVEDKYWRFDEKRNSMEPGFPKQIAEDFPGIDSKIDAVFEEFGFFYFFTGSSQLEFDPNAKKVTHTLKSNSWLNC

Substance: hyaluronic acid
- DISTANCE (CM) [1]: 1.1 ± 0.1 (n = 2) CM

Substance: polysulfated glycosaminoglycan [PSGAG]
- tissue distribution [2]: distributed to all tissues studied
- inhibition of hyaluronidases (hyaluronidases): inhibit
- inhibition of stromelysin (stromelysin): inhibit
- inhibition of metalloproteases (metalloproteases): inhibit
- inhibition of cathepsin B1 (cathepsin B1): inhibit
- distance of the violet-blue spot from its starting point [1]: approximately 3 cm
- DISTANCE (CM) [1]: 3.1 ± 0.3 (n = 12) CM
- effect on hyaluronic acid synthesis (synovial membrane cells): specific potentiating effect
- synthesis of proteoglycan and hyaluronic acid (human chondrocytes): increased synthesis
- inhibition of elastase (elastase): inhibit
- inhibition of Prostaglandin E2 (PGE2) synthesis [3]: inhibitor
- synthesis of proteoglycan and hyaluronic acid (rabbit chondrocytes): increased synthesis
- inhibition of serine proteinases (serine proteinases): significantly inhibit

Substance: chondroitin sulfate A
- DISTANCE (CM) [1]: 2.1 ± 0.0 (n = 2) CM

Substance: chondroitin sulfate C
- DISTANCE (CM) [1]: 2.0 ± 0.3 (n = 2) CM

Substance: keratan sulfate [Keratin Sulfate]
- DISTANCE (CM) [1]: 2.5 ± 0.1 (n = 2) CM

Substance: heparin sulfate
- DISTANCE (CM) [1]: 2.3 ± 0.0 (n = 2) CM

Substance: chondroitin sulfate B (dermatan sulfate)
- DISTANCE (CM) [1]: 1.7 ± 0.0 (n = 2) CM
